Reference: patent publication US8420668B2, “1-(2H)-isoquinolone derivative” (Chugai Seiyaku Kabushiki Kaisha, priority 2008, dated 2013)
≈ marks a conversion by molar mass, not a printed value.

Key:
[1] = Measurement of solubility in physiological saline; assay type: physicochemical; conditions: stirred 2 hours, filtered, HPLC
Experimental: The solubility of exemplary compounds of the present invention was measured.
The measurement was carried out using an internal standard method, and a 4-point calibration curve (4000 μM, 1000 μM, 250 μM, and 31.3 μM, or 1000 μM, 250 μM, 62.5 μM, and 7.8 μM) was prepared. A sample solution (100% DMSO) was lyophilized, and each solution was added. Then, the mixture was stirred for 2 hours, and the sample dissolved in the solution was filtered. Thereafter, the filtrate was measured by HPLC (HPLC). Physiological saline was used as a solution. Note that among the test compounds used, comparative compound 1 was the compound of Example 3-26 described in International publication No. WO06/090743 (phosphoric acid dibenzyl ester(R)-2-oxo-3-[1-oxo-3-(2-trifluoromethylphenyl)-1,2-dihydroisoquinolin-7-yl]-oxazolidin-5-ylmethyl ester). Further, the optical isomer of comparative compound 1, i.e., phosphoric acid dibenzyl ester(S)-2-oxo-3-[1-oxo-3-(2-trifluoromethylphenyl)-1,2-dihydroisoquinolin-7-yl]-oxazolidin-5-ylmethyl ester, was used as comparative compound 2. An active substance of the compound of the present invention, i.e., 7-((S)-5-hydroxymethyl-2-oxooxazolidin-3-yl)-3-(2-trifluoromethylphenyl)-2H-isoquinolin-1-one, was used as comparative compound 3. Another active substance of the compound of the present invention, i.e., 7-((R)-5-hydroxymethyl-2-oxooxazolidin-3-yl)-3-(2-trifluoromethylphenyl)-2H-isoquinolin-1-one, was used as comparative compound 4.

[2] = Measurement of conversion rate in human plasma; assay type: in vitro ADME; conditions: 37° C., 50 μM
Experimental: The conversion rate of exemplary compounds of the present invention in human plasma was measured. The measurement of conversion rate in human plasma was conducted using human plasma purchased from Rockland Immunochemicals, Inc. (Pennsylvania, the United States of America). Each compound was incubated at 37° C. for 6 hours in plasma at a concentration of 50 μM, subjected to deproteinization treatment, and then quantified by HPLC using an internal standard method. The conversion rate was calculated as a residual rate after 6 hours. Comparative compounds 1 and 2 described above were also tested as test compounds.

[3] = test system: human colon cancer cell line HCT116; assay: Measurement of antitumor effect in HCT116 tumor-bearing nude mice; assay type: in vivo, BALB/c nude mouse; conditions: tail vein, administered twice (day 0 and day 7), HCT116 subcutaneous xenograft, vs control group 14 days after start
Experimental: The antitumor effect of exemplary compounds of the present invention was measured.
The antitumor effect was determined using tumor-bearing mice prepared by subcutaneously implanting a human colon cancer cell line HCT116 obtained from American Type Culture Collection (Virginia, the United States of America) into flank of each BALB/c nude mouse purchased from Charles River, Japan. The purchased nude mice were quarantined for 1 week, and thereafter about 5×10^6 HCT116 cells were subcutaneously implanted into flank of each mouse. The mice were subjected to the experiment at the time when their tumor grew to a size of about 200 mm^3.
Each compound was dissolved in an administration solution, and the solution was administered to the tail vein at 0.1 mL per 10 g of body weight of each mouse. Administration was carried out twice in total; on the initiation day of administration and 7 days after the initiation day. The antitumor effect was calculated as tumor growth inhibition by comparing with tumor growth in the administration solution-administered control group 14 days after the initiation day of administration.

[4] = saline or isotonic, thermodynamic from solid

Compound	solubility at 2 h [1, 4] [µM]	Residual rate (after 6 hrs., %) [2] [%]	also measured
O=C1O[C@H](COP(=O)(O)O)CN1c1ccc2cc(-c3ccccc3C(F)(F)F)[nH]c(=O)c2c1 [Example 1, Mono-{(S)-2-oxo-3-[1-oxo-3-(2-trifluoromethyl-phenyl)-1,2-dihydro-isoquinolin-7-yl]-oxazolidin-5-ylmethyl}-phosphoric acid]	3530 (≈ 1710 µg/mL)	35.4	
O=C1O[C@H](COP(=O)([O-])[O-])CN1c1ccc2cc(-c3ccccc3C(F)(F)F)[nH]c(=O)c2c1.[Na+].[Na+] [Example 2, Mono-{(S)-2-oxo-3-[1-oxo-3-(2-trifluoromethyl-phenyl)-1,2-dihydro-isoquinolin-7-yl]-oxazolidin-5-ylmethyl}-disodium phosphate]		29.4	TGI on day 14 (%) ([3]; 60 mg/kg): 85%; solubility at 2 h [1]: 3527 µM; remained in human plasma after 6 hours (in words) [2]: almost all
O=C1O[C@@H](COP(=O)(O)O)CN1c1ccc2cc(-c3ccccc3C(F)(F)F)[nH]c(=O)c2c1 [Example 6, Mono-{(R)-2-oxo-3-[1-oxo-3-(2-trifluoromethyl-phenyl)-1,2-dihydro-isoquinolin-7-yl]-oxazolidin-5-ylmethyl}-phosphoric acid]	> 4000		
O=C1O[C@@H](COP(=O)(O)O)CN1c1ccc2cc(-c3ccccc3C(F)(F)F)[nH]c(=O)c2c1 [Example 7, Mono-{(R)-2-oxo-3-[1-oxo-3-(2-trifluoromethyl-phenyl)-1,2-dihydro-isoquinolin-7-yl]-oxazolidin-5-ylmethyl}-disodium phosphate]		33.4	TGI on day 14 (%) ([3]; 80 mg/kg): 30%

The next lines start with results.

solubility at 2 h [1, 4] [µM]	Compound	Residual rate (after 6 hrs., %) [2] [%]	also measured
< 7.8	O=C1O[C@@H](COP(=O)(OCc2ccccc2)OCc2ccccc2)CN1c1ccc2cc(-c3ccccc3C(F)(F)F)[nH]c(=O)c2c1 [Comparative compound 1, phosphoric acid dibenzyl ester(R)-2-oxo-3-[1-oxo-3-(2-trifluoromethylphenyl)-1,2-dihydroisoquinolin-7-yl]-oxazolidin-5-ylmethyl ester, reference compound]	99.5	remained in human plasma after 6 hours (in words) [2]: almost all
< 7.8	O=C1O[C@H](COP(=O)(OCc2ccccc2)OCc2ccccc2)CN1c1ccc2cc(-c3ccccc3C(F)(F)F)[nH]c(=O)c2c1 [Comparative compound 2, phosphoric acid dibenzyl ester(S)-2-oxo-3-[1-oxo-3-(2-trifluoromethylphenyl)-1,2-dihydroisoquinolin-7-yl]-oxazolidin-5-ylmethyl ester, reference compound]	95.5	
179 (≈ 72.4 µg/mL)	O=C1O[C@H](CO)CN1c1ccc2cc(-c3ccccc3C(F)(F)F)[nH]c(=O)c2c1 [Comparative compound 3, 7-((S)-5-hydroxymethyl-2-oxooxazolidin-3-yl)-3-(2-trifluoromethylphenyl)-2H-isoquinolin-1-one]		
193 (≈ 78 µg/mL)	O=C1O[C@@H](CO)CN1c1ccc2cc(-c3ccccc3C(F)(F)F)[nH]c(=O)c2c1 [Comparative compound 4, 7-((R)-5-hydroxymethyl-2-oxooxazolidin-3-yl)-3-(2-trifluoromethylphenyl)-2H-isoquinolin-1-one]		
